Assay [1] has as its system MDA-MB-231. Kind of assay: Anti-proliferative activity against human MDA-MB-231 cells measured after 48 hrs by MTT assay. The class given is functional, cell-based. To be noted: MDA-MB-231, 48 h. A general note: Tetrazolium assays rely on reduction of a dye to a coloured formazan, in cell work by metabolically active cells.
In assay [2] the test system is MDA-MB-231. Kind of assay: Anti-proliferative against human MDA-MB-231 cells by SRB colorimetric assay. It counts as functional, cell-based. Background: Sulforhodamine B stains cellular protein and so reports cell mass.
In assay [3] the test system is MCF7. Kind of assay: Anti-proliferative against human MCF-7 cells by MTT assay. The class given is functional, cell-based.
Another assay has as its system T47D. Kind of assay: Anti-proliferative against human T-47D cells by MTT assay. The class given is functional, cell-based.
The target in assay [4] is Platelet-derived growth factor receptor beta (Homo sapiens, UniProt P09619). Kind of assay: Inhibition of PDGFR beta (unknown origin).
Chain of Platelet-derived growth factor receptor beta (P09619 whole entry): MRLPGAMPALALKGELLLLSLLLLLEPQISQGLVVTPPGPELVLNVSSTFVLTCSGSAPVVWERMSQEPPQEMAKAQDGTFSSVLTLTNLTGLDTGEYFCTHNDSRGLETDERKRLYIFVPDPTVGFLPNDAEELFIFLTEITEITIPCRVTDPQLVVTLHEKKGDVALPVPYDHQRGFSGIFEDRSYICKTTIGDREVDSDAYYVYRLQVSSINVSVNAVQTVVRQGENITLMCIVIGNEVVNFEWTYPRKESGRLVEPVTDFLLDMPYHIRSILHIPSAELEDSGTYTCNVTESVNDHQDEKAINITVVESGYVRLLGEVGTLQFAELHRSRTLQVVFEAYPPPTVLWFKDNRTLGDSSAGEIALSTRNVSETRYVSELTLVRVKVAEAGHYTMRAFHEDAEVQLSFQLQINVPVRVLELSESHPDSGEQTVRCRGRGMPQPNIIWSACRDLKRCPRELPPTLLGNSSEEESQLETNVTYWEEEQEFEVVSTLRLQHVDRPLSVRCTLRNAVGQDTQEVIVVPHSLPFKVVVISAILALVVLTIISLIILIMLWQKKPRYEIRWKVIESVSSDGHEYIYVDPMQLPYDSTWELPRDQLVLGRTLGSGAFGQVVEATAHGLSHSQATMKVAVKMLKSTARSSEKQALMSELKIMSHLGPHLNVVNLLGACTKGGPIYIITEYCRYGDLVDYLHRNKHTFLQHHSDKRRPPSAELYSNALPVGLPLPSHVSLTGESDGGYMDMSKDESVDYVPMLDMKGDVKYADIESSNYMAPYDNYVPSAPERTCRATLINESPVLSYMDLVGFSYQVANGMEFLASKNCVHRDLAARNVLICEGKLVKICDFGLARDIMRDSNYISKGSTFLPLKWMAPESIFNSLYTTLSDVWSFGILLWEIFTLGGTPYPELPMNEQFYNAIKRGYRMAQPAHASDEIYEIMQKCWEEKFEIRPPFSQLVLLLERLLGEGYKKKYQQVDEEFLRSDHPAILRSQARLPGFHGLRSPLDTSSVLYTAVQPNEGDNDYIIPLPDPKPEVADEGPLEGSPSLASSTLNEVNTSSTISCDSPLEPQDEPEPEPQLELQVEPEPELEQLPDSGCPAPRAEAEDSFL
Assay [5] concerns MCF7. Kind of assay: Anti-proliferative against human MCF-7 cells by SRB colorimetric assay. It counts as functional, cell-based.
The target of assay [6] is Serine/threonine-protein kinase pim-1 (Homo sapiens, UniProt P11309). Kind of assay: Inhibition of PIM1 (unknown origin).
Chain of Serine/threonine-protein kinase pim-1 (P11309 whole entry): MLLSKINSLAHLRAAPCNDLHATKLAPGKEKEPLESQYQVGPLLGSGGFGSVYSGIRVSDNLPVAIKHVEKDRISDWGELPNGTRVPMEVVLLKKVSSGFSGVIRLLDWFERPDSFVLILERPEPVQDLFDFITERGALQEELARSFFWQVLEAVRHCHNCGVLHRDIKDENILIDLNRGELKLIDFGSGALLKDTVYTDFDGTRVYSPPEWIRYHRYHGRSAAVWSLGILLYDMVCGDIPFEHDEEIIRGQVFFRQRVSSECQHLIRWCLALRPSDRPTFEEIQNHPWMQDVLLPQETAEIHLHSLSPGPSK
The subject of assay [7] is HeLa. Kind of assay: Anti-proliferative against human HeLa cells incubated for 48 hrs by MTT assay. It counts as functional, cell-based.
Assay [8] deals with A549. Kind of assay: Anti-proliferative against human A549 cells incubated for 48 hrs by MTT assay. It counts as functional, cell-based. To be noted: A549, 48 h.
Another assay deals with SW-620. Kind of assay: Anti-proliferative against human SW620 cells incubated for 48 hrs by MTT assay. It counts as functional, cell-based. To be noted: SW-620, 48 h.
Assay [9] is described as follows: Inhibition of tyrosine kinase receptor (unknown origin) by ELISA. Also on record: species or system Homo sapiens. For orientation: An ELISA detects its analyte on a solid surface through an enzyme-linked reagent.
Assay [10] relates to HeLa. Kind of assay: Cytotoxicity against human HeLa cells measured after 48 hrs by MTS assay. It counts as functional, cell-based.
Assay [11] relates to HCT-116. Kind of assay: Antiproliferative against human HCT-116 cells assessed as reduction in cell proliferation incubated for 72 hrs by MTT assay. It counts as functional, cell-based. The note with it: HCT-116, 72 h.
Assay [12] has as its target Cyclin-dependent kinase 2 (Homo sapiens, UniProt P24941). Kind of assay: Inhibition of CDK2 (unknown origin).
Assay [13] concerns the target Apoptosis regulator Bcl-2 (Homo sapiens, UniProt P10415). Kind of assay: Inhibition of BCL2 (unknown origin).
In assay [14] the test system is HCT-116. Kind of assay: Anti-proliferative against human HCT-116 cells by SRB colorimetric assay. It counts as functional, cell-based.
For assay [15], the system named is A549. Kind of assay: Anti-proliferative against human A549 cells by SRB colorimetric assay. It counts as functional, cell-based.

The source of these data is ChEMBL document CHEMBL5149978, “Structural insights of oxindole based kinase inhibitors as anticancer agents: Recent advances” (Eur J Med Chem, 2021).

Chain of Apoptosis regulator Bcl-2 (P10415 whole entry): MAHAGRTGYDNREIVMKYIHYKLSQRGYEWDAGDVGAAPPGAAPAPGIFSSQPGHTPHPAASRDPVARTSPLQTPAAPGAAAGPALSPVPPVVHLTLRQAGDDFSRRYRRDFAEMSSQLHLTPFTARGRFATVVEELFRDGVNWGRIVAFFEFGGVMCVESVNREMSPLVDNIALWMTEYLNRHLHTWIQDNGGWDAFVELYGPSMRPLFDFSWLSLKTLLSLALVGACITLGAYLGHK

What is called IC50 is the concentration that gives 50% inhibition. For `N#CC1=C(c2ccccc2)Nc2c(c(-c3cccs3)nn2-c2ccccc2)C12C(=O)Nc1ccc(Cl)cc12` (stereo unspecified), 6.4 µM corresponded to half-maximal inhibition in the assay on MDA-MB-231 [1] (IC50).

`O=C(N/N=C1\C(=O)N(Cc2ccc(F)cc2)c2ccccc21)c1cc2ccccc2[nH]1` had a concentration for half-maximal inhibition (IC50) in the assay with MDA-MB-231 [2] of 1030 nM.

Turning to `O=C1Nc2ccc(Br)cc2/C1=N/NC(=O)c1cc2cc(Br)ccc2o1`, the IC50 with MCF7 [3] is 3.41 µM; in the assay on T47D, 3.82 µM.

`COc1ccc2c(c1)/C(=N\Nc1nnc3n1N=C(c1ccccc1)CS3)C(=O)N2` showed an IC50 in assay [4] of 371 nM.

Compound `Cc1ccc2c(c1)/C(=N/NC(=O)c1cc3ccccc3[nH]1)C(=O)N2` yielded a concentration for half-maximal inhibition (IC50) with MCF7 [5] of 390 nM.

As to `O=C(/C=C1\C(=O)Nc2ccccc21)/C=C/c1ccc(F)cc1`, the IC50 is 5 µM in assay [6], 1530 nM with HeLa [7], 2020 nM with A549 [8] and 130 nM with SW-620.

Regarding `O=C1Nc2ccccc2/C1=C/[S+]([O-])Cc1ccc(Br)cc1` (stereo unspecified), the IC50 came out at 1340 nM in assay [9] and 24.1 µM in the assay with HeLa [10].

`COc1cccc(C[S+]([O-])/C=C2\C(=O)Nc3ccccc32)c1` (stereo unspecified): the IC50 in assay [9] amounted to 2230 nM; in the assay on HeLa [10], 22.7 µM.

For `CCN(CC)CCN1Cc2[nH]c(/C=C3\C(=O)Nc4ccc(Br)cc43)c(C)c2C1=O`, the 50% inhibitory concentration (IC50) with HCT-116 [11] worked out at 1050 nM.

Consider `CCN(CC)CCN1Cc2[nH]c(/C=C3\C(=O)Nc4ccc(I)cc43)c(C)c2C1=O`, for which, in the assay on HCT-116 [11], the IC50 turned out to be 420 nM.

Compound `N#CC1=C(c2ccccc2)Nc2c(c(-c3cccs3)nn2-c2ccccc2)C12C(=O)Nc1ccc(Br)cc12` (stereo unspecified) registered a concentration for half-maximal inhibition (IC50) in the assay on MDA-MB-231 [1] of 6.7 µM.

In the case of `COc1ccc2c(c1)/C(=N/NC(=O)c1cc3cc(Br)ccc3o1)C(=O)N2`, the half-inhibitory concentration (IC50) in the assay on MCF7 [3] came to 2.27 µM; in the assay with T47D, 7.8 µM.

Take `Cc1ccc2c(c1)/C(=N/NC(=O)c1cc3cc(Br)ccc3o1)C(=O)N2`: the IC50 was determined as 3.45 µM in the assay with MCF7 [3] and 4.53 µM in the assay on T47D.

For the compound `CCCn1cc(/C=N/N=C2\C(=O)Nc3ccc(C)cc32)c2ccccc21`, the IC50 in assay [12] stood at 850 nM; in [13], 460 nM; with HCT-116 [14] it was 2600 nM; with MDA-MB-231 [2] it was 4700 nM; in the assay on A549 [15], 7.3 µM.
